For one data set, the system named is HCT116 xenograft. Description: Antitumor activity in vivo, sc xenograft model of colon cancer. The following applies: ip. Set-up: species or system CD1 nude female mice. Here is the method: Female CD-1 nude mice, 5 weeks of age and 20 to 22 g of weight, were housed in the animal house of the Italfarmaco Research Centre. Mice were maintained in micro isolator cages and supplied with sterile food and water under standard conditions.
Xenografts were generated by sc injection of 7×10^6 HCT116 cells in the right flank of the animals.
Tumor sizes were determined by caliper measurements and tumor volumes were calculated according to the following formula: Tumor volume (mm^3)=(w2×1)/2 where “w” is the width and “l” is the length of the carcinoma in mm.
Tumor growth was followed by volume measurement three times a week.
Tumor mass reached a measurable size three weeks after transplantation, at this time, treatments began.
Two reference compounds were also used in the experiment. The cinnamic hydroxamic acid panobinostat and 5-FU. The compounds were administered at the MTD according to previous experiments or as described in the literature.

Another data set concerns HCT116 cells. Description: Cytotoxicity in vitro, HCT116 (CellTiter 96 Aqueous One Solution). Format: cell-based, human. The following applies: for IC50: Homo sapiens, HCT-116, Table 2, 72 h incubation, read-out: HCT-116 IC 50. The text has this: The compounds of the present invention are small molecules of formula (I), characterised by the presence of a metal chelating moiety, the benzohydroxamate, an α-aminoacidic N-acylated central core and an α,β-unsaturation at the acyl-moiety. This particular structural feature seems responsible for the high inhibitory activity on cancer stem cell lines and on HCT116 cells (ATCC CCL-247), a human colorectal carcinoma cell line widely used in cancer biology both in vitro and in vivo (Botchkina Cancer Genom Proteom 6, 19-30, 2009; Yeung PNAS 107, 3722-3727, 2010).
(§1) The cytotoxicity activity was evaluated as follows: • Pre-B leukemia cell line 697 was seeded at 2×10^5 c/well; • Colon carcinoma cell lines HCT116, HT29 and COLO2015 were seeded at 4×10^3, 4×10^3 and 10×10^3 c/well respectively; • Primary human kidney cells were seeded at 1.5×10^3 and 6.5×10^3 in two separate experiments; • Human PBMC were seeded at 5×10^5 c/well; • Colon cancer stem cells (CSC) were seeded at 3×10^3;
(§2) Testing compounds were added after 24 h and incubated for 72 h (48 h for 697 cell line). The concentrations of molecules ranged from 10000 nM to 1.5 nM (10000 to 1 nM for 697 cell line). The cytotoxic activity of compounds was evaluated using the CellTiter 96® Aqueous One Solution Cell Proliferation Assay (Promega) which measures the functionality of mitochondria according to manufacturer's instructions. For Colon cancer stem cells viability was determined with CellTiter-Glo Luminescent cell viability assay (Promega).
(§3) The activity of compounds at any dose is calculated as percentage of inhibition versus vehicle-treated control (=0). The IC50s are extrapolated from the inhibition dose/response curve using GraphPad Prism program.

Data set [1] relates to Colon cancer stem cells (CSC) CSC1. Description: Cytotoxicity in vitro, colon cancer stem cells CSC1 (CellTiter-Glo). Format: cell-based. The following applies: Table 3; 72 h incubation; read-out: CSC1 IC 50. How it is done:
as §1, §2, §3

Data set [2] has as its system HT29 colon cancer cell line. As to the kind of experiment: Cytotoxicity in vitro, HT29 (CellTiter 96). The following applies: Homo sapiens, HT-29; 72 h incubation; read-out: HT29 IC 50. Format: cell-based. Here is the method: as §1, §2
(§4) The compound cytotoxicity was confirmed by further assays on two other colon cancer cell lines HT29 (ATCC HTB38) and Colo205 (ATCC CCL222) and on colon cancer stem cells (CSCs) (see table 2 and 3). It is worth noting that cytotoxic activity toward human primary kidney cells and peripheral blood mononuclear cells (PBMC) isolated from healthy donors was lower compared to tumor cells cytotoxicity (see table 4).
as §3

The subject of data set [3] is COLO205 colon cancer cell line. As to the kind of experiment: Cytotoxicity in vitro, COLO205 (CellTiter 96). The following applies: Homo sapiens, COLO 205; 72 h incubation; read-out: COLO205 IC 50. Format: cell-based. Here is the method:
as §1, §2, §4, §3

For data set [4], the system named is Colon cancer stem cells (CSC) CSC2. As to the kind of experiment: Cytotoxicity in vitro, colon cancer stem cells CSC2 (CellTiter-Glo). Format: cell-based. The following applies: 72 h incubation; read-out: CSC2 IC 50. How it is done: as §1, §2, §3
In data set [5] the test system is Colon cancer stem cells (CSC) CSC3. As to the kind of experiment: Cytotoxicity in vitro, colon cancer stem cells CSC3 (CellTiter-Glo). Format: cell-based. The following applies: 72 h incubation; read-out: CSC3 IC 50. Here is the method: as §1, §2, §3
The test system of another data set is Human PBMC. Description: Cytotoxicity in vitro, PBMC from healthy donors (CellTiter 96). Format: cell-based. Here is the method:
as §1, §2, §4, §3

Data set [6] has as its system Primary human kidney cells. Description: Cytotoxicity in vitro, primary renal cells (CellTiter 96). Type of data set: cell-based. How it is done: as §1, §2, §4, §3
Data set [7] is described as follows: Force degradation test (chemical stability). Format: physicochemical.
Setting [8] is: PBMC 1, 72 h incubation, read-out: PBMC 1 IC 50.
Setting [9] is: PBMC 2, 72 h incubation, read-out: PBMC 2 IC 50.
[10] abbreviates: Renal.ep1, 72 h incubation, read-out: Renal.ep1 IC 50.
Setting [11] is: Renal.ep2, 72 h incubation, read-out: Renal.ep2 IC 50.

Like-named read-outs stand apart in the source and are kept apart here.

For `Cc1[nH]c2ccccc2c1CCNCc1ccc(/C=C/C(=O)NO)cc1` [Panobinostat, panobinostat, reference compound], the “% inhib tumor vs CTRL after 44 days of treatment” value (shortened to “% inhib tumor vs CTRL”) in the data set with HCT116 xenograft (1 mg/kg) worked out at 34%.
Take `O=C(/C=C/c1ccc2c(c1)OCO2)N[C@@H](Cc1ccccc1)C(=O)Nc1ccc(C(=O)NO)cc1` [Compound 4D, (2S)-2-[[(E)-3-(1,3-benzodioxol-5-yl)prop-2-enoyl]amino]-N-[4-(hydroxycarbamoyl)phenyl]-3-phenyl-propanamide]: the IC50 amounted to 19 nM with HCT116 cells; 13 nM in [1]; 215 nM in data set [2]; 201 nM in data set [3]; 102 nM in data set [4]; 91 nM in [5]. Also, the IC50 came out at 359 nM in the data set with Human PBMC (setting [8]), 601 nM in the data set with Human PBMC (setting [9]) and 778 nM in [6] (setting [10]). In addition, the “% inhib tumor vs CTRL” value came to 54% in the data set with HCT116 xenograft (5 mg/kg) and 39% with HCT116 xenograft (10 mg/kg).
On to `COc1ccc(C[C@H](NC(=O)/C=C/c2ccc3c(c2)OCO3)C(=O)Nc2ccc(C(=O)NO)cc2)cc1` [Compound 1D, (2S)-2-[[(E)-3-(1,3-benzodioxol-5-yl)prop-2-enoyl]amino]-N-[4-(hydroxycarbamoyl)phenyl]-3-(4-methoxyphenyl)propanamide], for which the IC50 with HCT116 cells came out at 18 nM; in [1], 19 nM; in data set [2] it was 157 nM; in data set [3], 146 nM; in data set [4], 114 nM; in data set [5], 85 nM. For the same molecule, the IC50 stood at 80 nM in the data set on Human PBMC (setting [8]), 152 nM in the data set with Human PBMC (setting [9]), 462 nM in [6] (setting [10]) and 321 nM in data set [6] (setting [11]). Further, the “% inhib tumor vs CTRL” value in the data set on HCT116 xenograft (0.5 mg/kg) worked out at 23%; in the data set on HCT116 xenograft (1 mg/kg), 22%.
`O=C(/C=C/c1ccccc1)N[C@@H](Cc1ccccc1)C(=O)Nc1ccc(C(=O)NO)cc1` [Compound 5D, (2S)—N-[4-(hydroxycarbamoyl)phenyl]-3-phenyl-2-[[(E)-3-phenyl-2-enoyl]amino]propanamide]: the IC50 in the data set on HCT116 cells was determined as 14 nM; in [1], 26 nM; in data set [2], 197 nM; in data set [3] it was 221 nM; in data set [4], 102 nM; in data set [5] it was 230 nM. Besides, the IC50 with Human PBMC (setting [8]) is 147 nM; with Human PBMC (setting [9]) it was 595 nM; in [6] (setting [10]) it was 1060 nM; in data set [6] (setting [11]), 511 nM. For the same molecule, in the data set with HCT116 xenograft (5 mg/kg), the “% inhib tumor vs CTRL” value was determined as 46%.
Consider `COc1ccc(C[C@H](NC(=O)/C=C/c2ccccc2)C(=O)Nc2ccc(C(=O)NO)cc2)cc1` [Compound 2D, (2S)—N-[4-(hydroxycarbamoyl)phenyl]-3-(4-methoxyphenyl)-2-[[(E)-3-phenylprop-2-enoyl]amino]propanamide], for which the IC50 with HCT116 cells was 14 nM; in data set [1], 50 nM; in [2], 61 nM; in [3] it was 73 nM; in data set [4] it was 100 nM; in data set [5], 70 nM. Also, the IC50 was 89 nM with Human PBMC (setting [8]) and 42 nM in the data set on Human PBMC (setting [9]). Further, the “% inhib tumor vs CTRL” value in the data set on HCT116 xenograft (1 mg/kg) is 33%.
`O=C(/C=C\c1ccccc1)N[C@@H](Cc1ccccc1)C(=O)Nc1ccc(C(=O)NO)cc1` [Compound 5DZ, (S,Z)—N-hydroxy-4-(3-phenyl-2-(3-phenylacrylamido)propanamido)benzamide]: in the data set on HCT116 cells (cis-form vs trans-form), the “potency on HCT116 cells compared with the trans-form” value is “less potent”. Moreover, the “stability at high temperatures” value in [7] (15 days at 80° C.) was “little less stable”. The “stability at low pH” value in [7] (15 days at pH 2) is “definitely less stable”. The “chemical stability compared with the trans” value in data set [7] (cis-form vs trans) was “chemically less stable”.
In the case of `O=c1[nH]cc(F)c(=O)[nH]1` [Compound 5-FU, 5-FU, reference compound], the “% inhib tumor vs CTRL” value in the data set on HCT116 xenograft (10 mg/kg) is recorded as 36%; in the data set on HCT116 xenograft (70 mg/kg, once a week), 61%.
